These results are taken from patent US4900729A, “Thieno-1,4-diazepines” (Boehringer Ingelheim KG, priority 1986, dated 1990).

Bounds are passed on as bounds.

The test system of one series is human thrombocytes (PAF-induced aggregation). Description: inhibition of PAF-induced aggregation of human thrombocytes in vitro. It is filed as cell-based. The note with it: Homo sapiens, PAF-induced aggregation, read-out: IC50 (concentration for a 50% inhibition of aggregation). On the procedure:
The PAF-antagonistic activity of some compounds of formula I was investigated by means of the inhibition of blood platelet aggregation in vitro and the antagonising of the PAF-induced bronchoconstriction in anaesthetised guinea pigs, the lowering of blood pressure in anaesthetised rats and skin wheals in rats. Moreover, these compounds were tested for any possible side effects on the central nervous system.
1. In vitro tests: inhibition of blood platelet aggregation
In order to determine the PAF-antagonistic activity of substances, the PAF-induced aggregation of human thrombocytes in vitro was used. In order to obtain thrombocyte-rich plasma (TRP) blood was taken from an unconstricted vein using a plastic syringe containing 3.8% of sodium citrate solution. The ratio of sodium citrate solution to blood was 1:9. After careful mixing, the citrated blood was centrifuged for 20 minutes at 150×g (1200 rpm). The thrombocyte aggregation was measured using the method developed by Born and Cross (G. V. R. Born and M. J. Cross, J. Physiol. 168, 178 (1963)), in which PAF is added to the TRP with constant stirring in order to initiate aggregation.
The test substance is added 2 to 3 minutes before aggregation is induced, in a volume of 10 μl. The solvent used is either distilled water, ethanol and/or dimethylsulphoxide. The controls were given corresponding volumes of this solvent. After the initial absorption had been recorded (2 to 3 minutes) aggregation was induced with PAF (5×10^-8 M).
The maximum of the first aggregation wave is used to assess the effects of the substance. The PAF-induced maximum absorption rate (=maximum aggregation×100%) is simultaneously tested in a parallel mixture (=control mixture in one of the channels of the 2-channel aggregometer) with each test batch (second channel) and is used as the 100% value.
The level of aggregation achieved under the effect of the […] is given […].
Each test substance is tested at concentrations of from 10^-3 to 10^-8 M with a random sampling range of n=4 in order to investigate an inhibiting effect on the PAF-induced thrombocyte aggregation. A concentration-activity curve is then plotted using 3 concentrations and the IC50 is determined (concentration for a 50% inhibition of aggregation). The IC values of compounds of general formula I are generally around levels of less than 9 μM.
In the case of `Cc1nnc2n1-c1ccc(Cl)cc1C(c1ccccc1Cl)=NC2` [Triazolam, triazolam, reference compound], the IC50 was determined as 9000 nM.

The same series, now with this note: PAF-induced aggregation, read-out: IC50 (concentration for a 50% inhibition of aggregation).
For `Cc1nnc2n1-c1ccc(Cl)cc1C(c1ccccc1)=NC2` [Alprazolam, alprazolam, reference compound], the IC50 came to 14000 nM.

Staying with this series, now noted: Platelet, Table A, PAF 5×10^-8 M, human thrombocyte-rich plasma, read-out: IC50 (inhibition of blood platelets).
Take `Cc1nnc2n1-c1sc(CCCCCCCN)cc1C(c1ccccc1Cl)=NC2` [Example 9, 2-(7-Amino-heptyl)-4-(2-chlorophenyl)-9-methyl-6H-thieno[3,2-f][1,2,4]triazolo[4,3-a][1,4]diazepine]: the IC50 was 200 nM. As for `CC(=O)OCCCc1cc2c(s1)-n1c(Br)nnc1CN=C2c1ccccc1Cl` [Example 13, 2-(3-Acetoxypropyl)-4-(2-chlorophenyl)-9-bromo-6H-thieno[3,2-f][1,2,4]triazolo[4,3-a][1,4]diazepine], the IC50 came to 300 nM. Still for that read-out and setting: as for `CC(=O)OCCCCCCCc1cc2c(s1)-n1c(C)nnc1CN=C2c1ccccc1Cl` [Example 4, 7-[4-(2-Chlorophenyl)-9-methyl-6H-thieno[3,2-f][1,2,4]triazolo[4,3-a][1,4]diazepin-2-yl]heptyl acetate], the figure is less than 200 nM; as for `CC(=O)OCCCc1cc2c(s1)-n1c(C)cnc1CN=C2c1ccccc1Cl` [Example 56], 300 nM. For the compound `Cc1nnc2n1-c1sc(CCCCCCCN3C(=O)c4ccccc4C3=O)cc1C(c1ccccc1Cl)=NC2` [Example 8, 2-(7-N-Phthalimidoheptyl)-4-(2-chlorophenyl)-9-methyl-6H-thieno[3,2-f][1,2,4]triazolo[4,3-a][1,4]-diazepine], the IC50 is less than 300 nM. For the compound `CC(=O)OCCCCCCCc1cc2c(s1)-n1c(C)cnc1CN=C2c1ccccc1Cl` [Example 58], the IC50 is less than 200 nM. Turning to `CC(=O)NCCCCCCCc1cc2c(s1)-n1c(C)nnc1CN=C2c1ccccc1Cl` [Example 10, 2-(7-Acetylaminoheptyl)-4-(2-chlorophenyl)-9-methyl-6H-thieno[3,2-f][1,2,4]triazolo[4,3-a][1,4]diazepine], the IC50 is 1700 nM. Same read-out and setting: in the case of `Cc1nnc2n1-c1sc(CCCN3CCOCC3)cc1C(c1ccccc1Cl)NC2` (stereo not shown) [Example 14l, 2-[3-(N-Morpholinyl)-n-propyl]-4-(2-chlorophenyl)-9-methyl-4,5-dihydro-6H-thieno[3,2-f][1,2,4]triazolo-[4,3-a][1,4]diazepine] it was 600 nM; in that of `Cc1nnc2n1-c1sc(CCCN3CCOCC3)cc1C(c1ccccc1)=NC2` [Example 54], 1100 nM. For the compound `Cc1nnc2n1-c1sc(CCCNCCN3CCOCC3)cc1C(c1ccccc1Cl)=NC2` [Example 75], the IC50 was 1900 nM. Turning to `Cc1nnc2n1-c1sc(CCCO)cc1C(c1ccccc1Cl)NC2` (stereo not shown) [Example 98], the IC50 was 2300 nM.

`Cc1nnc2n1-c1sc(CCCCCCCNCCN(C)C)cc1C(c1ccccc1Cl)=NC2` [Example 60]: the IC50 is 900 nM. With `Cc1nnc2n1-c1sc(CCCCCCCN3CCN(C)CC3)cc1C(c1ccccc1Cl)=NC2` [Example 49], the IC50 was found to be 1000 nM. For `Cc1nnc2n1-c1sc(CCCn3cncn3)cc1C(c1ccccc1Cl)=NC2` [Example 64], the IC50 is less than 200 nM.

Consider `CC(=O)OCCCc1cc2c(s1)-n1cnnc1CN=C2c1ccccc1Cl` [Example 50], for which the IC50 came out at 600 nM. On the same count and under the same terms, as for `Cc1nnc2n1-c1sc(CCCCCCCOC(=O)C(C)(C)C)cc1C(c1ccccc1Cl)=NC2` [Example 27], the figure is 200 nM; as for `Cc1nnc2n1-c1sc(CCCN3CCCCC3)cc1C(c1ccccc1Cl)=NC2` [Example 45], 300 nM. As to `Cc1nnc2n1-c1ccc(Cl)cc1C(c1ccccc1Cl)=NC2` [Triazolam, triazolam, reference compound], the IC50 worked out at 9000 nM. With `CC(=O)OCCCc1cc2c(s1)-n1c(C)nnc1CN=C2c1ccccc1Cl` [Example 2, 3-[4-(2-Chlorophenyl)-9-methyl-6H-thieno[3,2-f][1,2,4]triazolo[4,3-a][1,4]diazepin-2-yl]propyl acetate], the IC50 is less than 200 nM.

As for `Cc1nnc2n1-c1sc(CCCCCCC=O)cc1C(c1ccccc1Cl)=NC2` [Example 12, 2-(6-Formylhexyl)-4-(2-chlorophenyl)-9-methyl-6H-thieno[3,2-f][1,2,4]triazolo[4,3-a][1,4]diazepine], the IC50 worked out at 300 nM. Still for that read-out and setting: as for `CCN(CC)CCCc1cc2c(s1)-n1c(C)nnc1CN=C2c1ccccc1Cl` [Example 71], the figure is 900 nM; as for `Cc1nnc2n1-c1sc(CCS(=O)(=O)N3CCOCC3)cc1C(c1ccccc1Cl)=NC2` [Example 20], 300 nM; as for `Cc1nnc2n1-c1sc(CCS(=O)(=O)N3CCN(C)CC3)cc1C(c1ccccc1Cl)=NC2` [Example 1, 2-[4-(2-Chlorophenyl)-9-methyl-6H-thieno[3,2-f][1,2,4]triazolo[4,3-a][1,4]diazepin-2-yl]-ethane-1-sulphonic acid-N'-methylpiperazide], 300 nM. `Cc1nnc2n1-c1sc(CCCN3CCOCC3)cc1C(c1ccccc1Cl)=NC2` [Example 11, 2-(3-(N-Morpholinyl)propyl)-4-(2-chlorophenyl)-9-methyl-6H-thieno[3,2-f][1,2,4]triazolo[4,3-a][1.4]-diazepine]: the IC50 is less than 200 nM. With `Cc1nnc2n1-c1sc(CCCCCCCOS(C)(=O)=O)cc1C(c1ccccc1Cl)=NC2` [Example 23], the IC50 was found to be 900 nM.

Regarding `Cc1nnc2n1-c1sc(CCCOC(=O)C(C)(C)C)cc1C(c1ccccc1Cl)=NC2` [Example 25], the IC50 turned out to be 900 nM.

Turning to `Cc1nnc2n1-c1sc(CC(C)C(=O)N3CCOCC3)cc1C(c1ccccc1Cl)=NC2` (stereo not shown) [Example 14i, 2-[2-(Morpholin-4-yl-carbonyl)-n-propyl]-4-(2-chlorophenyl)-9-methyl-6H-thieno[3,2-f][1,2,4]triazolo[4,3-a][1,4]diazepine], the IC50 amounted to 400 nM.

Staying with this series, now noted: Table A, PAF 5×10^-8 M, human thrombocyte-rich plasma, read-out: IC50 (inhibition of blood platelets).
As to `Cc1nnc2n1-c1ccc(Cl)cc1C(c1ccccc1)=NC2` [Alprazolam, alprazolam, reference compound], the IC50 was determined as 14000 nM.

Test system in the next series: not given
Test: not given
The note with it: commercially available tranquillisers or hypnotics; cited from earlier work.
In the case of `Cc1nnc2n1-c1ccc(Cl)cc1C(c1ccccc1Cl)=NC2` [Triazolam, triazolam, reference compound], the “sedative effect of known benzodiazepines” value is “marked sedative effect”.
